Data taken from patent US10537555B2, “Complex of angiotensin receptor antagonist and neutral endopeptidase inhibitor” (CHENGDU EASTON BIOPHARMACEUTICALS CO., LTD., priority 2015, dated 2020).

Assays:
Type in all cases: physicochemical
[1] = Chemical stability test (HPLC purity under strong light, high temperature, high humidity); parameters: Purity, Valsartan: unit not given here
Source text: On Day 5 and Day 10, respectively, test samples were taken to test their purity.

[2] = Hygroscopy test (25±1° C., RH 80%±2%, 24 hours); conditions: for Appearance at Hour Twenty-Four / Weight Increase: 24 hours
Source text: The results are in Table XII.

[3] = LCZ696 under high humidity conditions for ten days
Source text: LCZ696 is highly hygroscopic. […] It is well known that hygroscopicity causes difficulties in granulations, disintegration, dissolution of the solid form during the formulation process, affecting the stability and efficacy of the drug product. Hygroscopic compounds also require more expensive and complex excipients, manufacturing processes, and storage facilities.

Change of HPLC purity in stability test ([1]; 10 days at 60° C., 25° C. RH90%±5%, or 4500 lux±500 lux): only slight decreases in purities
Purity, Valsartan ([1]; Humidity 25° C. RH90%, 5 days): 37.05
Purity, Valsartan ([1]; Humidity 25° C. RH90%, 10 days): 37.01
Purity, Valsartan ([1]; Light 4500Lux, 5 days): 37.04
Purity, Valsartan ([1]; Light 4500Lux, 10 days): 36.99
Purity, Valsartan ([1]; Temperature 60° C., 5 days): 37.03
Purity, Valsartan ([1]; Temperature 60° C., 10 days): 36.98
Appearance at Hour Twenty-Four [2]: Almost a liquid
Weight Increase [2]: 22.34%
Appearance at Hour Twenty-Four ([2]; listed as comparative example): almost became a liquid
Weight Increase ([2]; listed as comparative example): more than 15%
Appearance at Hour Zero ([2]; hour zero): Off white powder
Structure (SMILES): CCCCC(=O)N(Cc1ccc(-c2ccccc2-c2nn[n-]n2)cc1)C(C(=O)[O-])C(C)C.CCCCC(=O)N(Cc1ccc(-c2ccccc2-c2nn[n-]n2)cc1)C(C(=O)[O-])C(C)C.CCOC(=O)C(C)CC(Cc1ccc(-c2ccccc2)cc1)NC(=O)CCC(=O)[O-].CCOC(=O)C(C)CC(Cc1ccc(-c2ccccc2)cc1)NC(=O)CCC(=O)[O-].O.O.O.O.O.[Na+].[Na+].[Na+].[Na+].[Na+].[Na+] (stereo not shown) [Comparative Example]
Hygroscopicity, physical form after exposure [3]: absorbs water and turns into a liquid form
